Read-outs that look alike come from different tables or passages of the source.
Key:
[1] = test system: HCV subgenomic reporter replicon of genotype 1b (strain Con1); assay: Anti-HCV 1b activity, luciferase reporter replicon assay in Huh5-2 cells; type: cell-based, Hepatitis C virus; settings: for EC50: Hepatitis C virus, read-out: HCV Replicon 1b EC50; for HCV Replicon 1b SI50: SI50 = CC50/EC50; for times less potent than compound 26 / fold more potent than six-membered congeners: HCV 1b EC50 ratio; for fold more potent than six-membered congeners: 1, 9, 17, 21 vs 29, 30, 31, 32 respectively
Description: (§1) The HCV RNA replication inhibitory effect of the novel compounds and their impact on cell viability was tested in the stable cell line Huh5-2 carrying an HCV subgenomic reporter replicon of genotype 1b (strain Con1). The viral replication level was measured in terms of the activity of the co-expressed firefly luciferase (F-Luc). Several concentrations of the tested compounds were prepared in a cell culture medium and were used to treat the cells for 72 h. The solvent DMSO was added as a control with a final concentration of 0.2% so as not to impact viral replication (data not shown). First, different compound concentrations of up to 100 μM were evaluated for their effect on cell viability; results are reported as the median cytotoxic concentration (CC50). Next, all compounds were screened for their anti-HCV activity at a concentration of 1 µM, and compounds showing ≥50% activity were further tested in several concentrations to calculate the median effective concentration (EC50) values (Table 1 and Table 2). The anti-HCV activity of the analogs 1–32 was estimated by quantifying luciferase activity resulting from viral replication. Cytotoxicity was determined by measuring the intracellular levels of ATP. The selectivity index (SI50) was calculated as the ratio of CC50 to EC50 and was calculated as an indication of the compounds’ safety. We used daclatasvir as a positive control.
The stable replicon cell line Huh5-2 (genotype 1b; Con1) (kindly provided by R. Bartenschlager, Heidelberg University, Germany) has been described previously. The stable cell lines Huh7.5-3a and Huh7.5-4a have been constructed with the subgenomic reporter replicons of HCV 3a (S52) S52-SG(Feo)(AII) and HCV 4a (ED43) ED43-SG(Feo)(VYG) (kindly provided by C.M. Rice, The Rockefeller University, NY). Cells were cultured in high glucose (25 mM) Dulbecco’s modified minimal essential medium (Invitrogen), supplemented with 2 mM L-glutamine, 0.1 mM non-essential amino acids, 100 U/mL penicillin, 100 µg/mL streptomycin, and 10% (v/v) fetal calf serum (referred to as complete DMEM). Complete DMEM was supplemented with G418 at 500 μg/mL for Huh5-2, 750 μg/mL for Huh7.5-3a, and 350 μg/mL for Huh7.5-4a.
(§2) Cells were treated with serial dilutions of the test compounds or the solvent DMSO for 72 h. Antiviral activity and cytotoxicity were determined by measuring virus-derived luciferase activity or intracellular ATP levels, respectively. The median effective concentration (EC50) of the compounds, reducing luciferase signal by 50%, and their median cytotoxic concentration (CC50), causing 50% cell death, were determined by nonlinear regression analysis using the Prism 6.0 software (GraphPad Software Inc.). Daclatasvir was kindly provided by Dr. Marc Windisch (Institut Pasteur Korea).
Firefly luciferase activity was measured using Luciferase Assay System (Promega), according to the manufacturer’s instructions. Measurements were performed with a GloMax 20/20 single tube luminometer (Promega) for 10 s. Values were normalized to total protein amounts as quantified by Bradford assay (Pierce).

[2] = Cytotoxicity by intracellular ATP levels; type: cell-based; settings: human, Huh5-2 cells, read-out: HCV Replicon 1b CC50
Description: as §1, §2
ATP was measured using the ViaLight HS BioAssay kit (Lonza) according to the manufacturer’s protocol in a GloMax 20/20 single-tube luminometer (Promega) for 1 s. Values were normalized to total protein amounts.

[3] = Huh-5-2, Huh5-2 cells, 72 h, luciferase activity

Structure (SMILES)	EC50 ([1]; Huh-5-2, 72 h) [nM]	CC50 at 72 h [2] [nM]	HCV Replicon 1b SI50 [1]	times less potent than compound 26 [1] [times]	fold more potent than six-membered congeners [1]	EC50 [1, 3] [nM]
CCCCOC(=O)N[C@H](CC(C)C)C(=O)N1CCC[C@H]1C(=O)Nc1ccc2c(c1)Cc1cc(NC(=O)[C@@H]3CCCN3C(=O)[C@@H](CC(C)C)NC(=O)OCCCC)ccc1-2 [Compound 15, Dibutyl((2R,2’R)-((2S,2’S)-(((9H-fluorene-2,7-diyl)bis(azanediyl))bis(carbonyl))bis(pyrrolidine-2,1-diyl))bis(4-methyl-1-oxopentane-1,2-diyl))dicarbamate]	> 1000	34200				
CC(C)[C@H](NC(=O)OCc1ccccc1)C(=O)N1CCC[C@H]1C(=O)Nc1ccc2c(c1)Cc1cc(NC(=O)[C@@H]3CCCN3C(=O)[C@@H](NC(=O)OCc3ccccc3)C(C)C)ccc1-2 [Compound 4, Dibenzyl ((2S,2’S)-((2S,2’S)-(((9H-fluorene-2,7-diyl)bis(azanediyl))bis(carbonyl))bis(pyrrolidine-2,1-diyl))bis(3-methyl-1-oxobutane-1,2-diyl))dicarbamate]	967	> 100000	>103			
CCCCOC(=O)N[C@@H](C(=O)N1CCC[C@H]1C(=O)Nc1ccc2c(c1)Cc1cc(NC(=O)[C@@H]3CCCN3C(=O)[C@H](NC(=O)OCCCC)c3ccccc3)ccc1-2)c1ccccc1 [Compound 27, Dibutyl((1R,1’R)-((2S,2’S)-(((9H-fluorene-2,7-diyl)bis(azanediyl))bis(carbonyl))bis(pyrrolidine-2,1-diyl))bis(2-oxo-1-phenylethane-2,1-diyl))dicarbamate]	4.03	> 100000	>24,795	100		
COC(=O)N[C@H](C(=O)N1CCC[C@H]1C(=O)Nc1ccc2c(c1)Cc1cc(NC(=O)[C@@H]3CCCN3C(=O)[C@@H](NC(=O)OC)C(C)C)ccc1-2)C(C)C [Compound 1, Dimethyl((2S,2’S)-((2S,2’S)-(((9H-fluorene-2,7-diyl)bis(azanediyl))bis(carbonyl))bis(pyrrolidine-2,1-diyl))bis(3-methyl-1-oxobutane-1,2-diyl))dicarbamate]					five	
CCCCOC(=O)N[C@H](C(=O)N1CCC[C@H]1C(=O)Nc1ccc2c(c1)Cc1cc(NC(=O)[C@@H]3CCCN3C(=O)[C@@H](NC(=O)OCCCC)c3ccccc3)ccc1-2)c1ccccc1 [Compound 23, Dibutyl((1S,1’S)-((2S,2’S)-(((9H-fluorene-2,7-diyl)bis(azanediyl))bis(carbonyl))bis(pyrrolidine-2,1-diyl))bis(2-oxo-1-phenylethane-2,1-diyl))dicarbamate]	2.25	> 100000	>44,444			
CC(C)(C)OC(=O)N1CCCC(C(=O)Nc2ccc3c(c2)Cc2cc(NC(=O)C4CCCN(C(=O)OC(C)(C)C)C4)ccc2-3)C1 (stereo not drawn) [IV, Di-tert-butyl3,3’-(((9H-fluorene-2,7diyl)bis(azanediyl))bis(carbonyl))bis(piperidine-1-carboxylate)]		45000				> 1000
CC(C)[C@@H](NC(=O)OCc1ccccc1)C(=O)N1CCC[C@H]1C(=O)Nc1ccc2c(c1)Cc1cc(NC(=O)[C@@H]3CCCN3C(=O)[C@H](NC(=O)OCc3ccccc3)C(C)C)ccc1-2 [Compound 8, Dibenzyl((2R,2’R)-((2S,2’S)-(((9H-fluorene-2,7-diyl)bis(azanediyl))bis(carbonyl))bis(pyrrolidine-2,1-diyl))bis(3-methyl-1-oxobutane-1,2-diyl))dicarbamate]	45.4	> 100000	>2202			
O=C(N[C@@H](C(=O)N1CCC[C@H]1C(=O)Nc1ccc2c(c1)Cc1cc(NC(=O)[C@@H]3CCCN3C(=O)[C@H](NC(=O)OCc3ccccc3)c3ccccc3)ccc1-2)c1ccccc1)OCc1ccccc1 [Compound 28, Dibenzyl((1R,1’R)-((2S,2’S)-(((9H-fluorene-2,7-diyl)bis(azanediyl))bis(carbonyl)) Bis(pyrrolidine-2,1-diyl))bis(2-oxo-1-phenylethane-2,1-diyl))dicarbamate]		> 100000	>1,058	2363		94.5
CCOC(=O)N[C@H](C(=O)N1CCC[C@H]1C(=O)Nc1ccc2c(c1)Cc1cc(NC(=O)[C@@H]3CCCN3C(=O)[C@@H](NC(=O)OCC)c3ccccc3)ccc1-2)c1ccccc1 [Compound 22, Diethyl((1S,1’S)-((2S,2’S)-(((9H-fluorene-2,7-diyl)bis(azanediyl))bis(carbonyl))bis(pyrrolidine-2,1-diyl))bis(2-oxo-1-phenylethane-2,1-diyl))dicarbamate]	7.49	> 100000	>13,349			
CCCCOC(=O)N[C@H](C(=O)N1CCC[C@H]1C(=O)Nc1ccc2c(c1)Cc1cc(NC(=O)[C@@H]3CCCN3C(=O)[C@@H](NC(=O)OCCCC)C(C)C)ccc1-2)C(C)C [Compound 3, Dibutyl((2S,2’S)-((2S,2’S)-(((9H-fluorene-2,7-diyl)bis(azanediyl))bis(carbonyl))bis(pyrrolidine-2,1-diyl))bis(3-methyl-1-oxobutane-1,2-diyl))dicarbamate]	> 1000	> 100000				
CCOC(=O)N[C@H](C(=O)N1CCC[C@H]1C(=O)Nc1ccc2c(c1)Cc1cc(NC(=O)[C@@H]3CCCN3C(=O)[C@@H](NC(=O)OCC)C(C)C)ccc1-2)C(C)C [Compound 2, Diethyl((2S,2’S)-((2S,2’S)-(((9H-fluorene-2,7-diyl)bis(azanediyl))bis(carbonyl))bis(pyrrolidine-2,1-diyl))bis(3-methyl-1-oxobutane-1,2-diyl))dicarbamate]	> 1000	> 100000				
CCOC(=O)N[C@H](CC(C)C)C(=O)N1CCC[C@H]1C(=O)Nc1ccc2c(c1)Cc1cc(NC(=O)[C@@H]3CCCN3C(=O)[C@@H](CC(C)C)NC(=O)OCC)ccc1-2 [Compound 14, Diethyl ((2R,2’R)-((2S,2’S)-(((9H-fluorene-2,7-diyl)bis(azanediyl))bis(carbonyl))bis(pyrrolidine-2,1-diyl))bis(4-methyl-1-oxopentane-1,2-diyl))dicarbamate]	2.55	> 100000	>39,185			
COC(=O)N[C@@H](CC(C)C)C(=O)N1CCCC(C(=O)Nc2ccc3c(c2)Cc2cc(NC(=O)C4CCCN(C(=O)[C@H](CC(C)C)NC(=O)OC)C4)ccc2-3)C1 (stereo partly drawn) [Compound 30]	289	> 100000	>346			
COC(=O)N[C@@H](C(=O)N1CCC[C@H]1C(=O)Nc1ccc2c(c1)Cc1cc(NC(=O)[C@@H]3CCCN3C(=O)[C@H](NC(=O)OC)C(C)C)ccc1-2)C(C)C [Compound 5, Dimethyl ((2R,2’R)-((2S,2’S)-(((9H-fluorene-2,7-diyl)bis(azanediyl))bis(carbonyl))bis(pyrrolidine-2,1-diyl))bis(3-methyl-1-oxobutane-1,2-diyl))dicarbamate]	801	> 100000	>125			
COC(=O)N[C@H](C(=O)N1CCC[C@H]1C(=O)Nc1ccc2c(c1)Cc1cc(NC(=O)[C@@H]3CCCN3C(=O)[C@@H](NC(=O)OC)c3ccccc3)ccc1-2)c1ccccc1 [Compound 21, Dimethyl((1S,1’S)-((2S,2’S)-(((9H-fluorene-2,7diyl)bis(azanediyl))bis(carbonyl))bis(pyrrolidine-2,1-diyl))bis(2-oxo-1-phenylethane-2,1-diyl))dicarbamate]	8.5	87500	10,298		36 fold	
